From PubChem BioAssay AID1963854 (Molecular Pharmacology Branch, DTP, NCI, 2024)

Test system: 186277-243-T-J2-PDC complex spheroid viability
Assay: Anticancer human tumor 186277-243-T-J2-PDC patient-derived colon adenocarcinoma cell line growth inhibition [POLQ]
Details: for IC50: curve of first compound; for viability, T/C: stronger effect = lower value
Description: Multicellular complex tumor spheroid response to Polymerase (POL) inhibitors (novobiocin, ART-558, RP6685) in combination with a variety of drugs and investigational agents in selected tumor cell lines
The POL inhibitors (novobiocin, ART-558, and RP6685) were evaluated both individually and in combination with standard of care and investigational anticancer small molecules within a complex spheroid model of solid tumors. . Complex spheroids include a stromal component modeled by human endothelial cells (HUVEC) and fibroblasts modeled by human mesenchymal stem cells (MSCs). The concentration ranges selected for each drug and investigational agent were based upon clinically achievable concentrations if the clinical Cmax of the agent was known.
Compounds. The drugs and investigational agents: novobiocin (NSC847541), ART-558 (NSC835418), RP-6685 (NSC848927), peposertib (NSC802822), ceralasertib (NSC780249), elimusertib (NSC800525), camonsertib (NSC841442), AZD-1390 (NSC803789), olaparib (NSC753686), talazoparib (NSC767125), rucaparib (NSC756644), sotorasib (NSC818433), MRTX-1133 (NSC836407), SN-38 (NSC673596), topotecan (NSC609699), epotoside (NSC141540), doxorubicin (NSC123127), gemcitabine (NSC613327), 5-fluorouracil (NSC19893), paclitaxel (NSC125973), vemurafenib (NSC761431), MSA-2 (NSC828583), SN-011 (NSC837082), adavosertib (NSC754352), prexasertib (NSC758257), carboplatin (NSC241240) and oxaliplatin (NSC266046), were obtained from the National Cancer Institute (NCI) Developmental Therapeutics Program Chemical Repository (21). The FDA-approved anticancer drug set is available from the Developmental Therapeutics Program at https://dtp.cancer.gov/organization/dscb/obtaining/. […] The stock solutions were prepared in dimethyl sulfoxide (DMSO, Sigma-Aldrich, St. Louis, MO, cat. D2650), except for the platinum compounds which were prepared in saline (Quality Biological, Gaithersburg, MD, cat. 114-055-101), at 800-fold the tested concentration and stored at -70 degrees C prior to their use. All drugs and investigational agents were tested over a range starting from a high concentration at or near the clinical Cmax and decreasing in half-log increments. If the clinical Cmax for an agent had not been determined, the highest concentration tested was 10 microM, except for SN-38, which was tested at a high concentration of 1 microM.
Cell Culture. All cells were maintained in an incubator at 37 degrees C and 5% CO2 with 95% humidity. The PDC lines were cultured according to standard operating procedures established by the NCI PDMR (https://pdmr.cancer.gov). Table 3 of the manuscript, lists the cell lines along with the number of the three cell types plated to form the mct-spheroids and media for tumor cell growth. After thawing, all PDC lines, except 997537-175-T-J1-PDC and 415267-285-R-J2-PDC, were cultured in Matrigel-coated flasks prepared with a working solution of 1X Ham's F-12 nutrient mix, without supplementation (Thermo Fisher Scientific, cat. 11765054), 100 U/mL penicillin-streptomycin (Thermo Fisher Scientific, cat. 15140122), and 2.5% Matrigel (Corning Inc., Corning, NY, cat. 354248) for the first three passages. The two PDC lines 997537-175-T-J1-PDC and 415267-285-R-J2-PDC were cultured on uncoated flasks. The 857933-349-R-J2-PDC line was cultured in 6C/Colon 1B media containing advanced DMEM/F-12 (Thermo Fisher Scientific, cat. 12634028), 10 mM HEPES (Thermo Fisher Scientific, cat. 15630080), 1X GlutaMAX supplement (Thermo Fisher Scientific, cat. 35050061), 0.1 mg/mL primocin (InvivoGen, San Diego, CA, cat. ant-pm-2), 10% defined fetal bovine serum, heat inactivated (HyClone Laboratories Inc., Logan, UT, cat. SH30070.03HI), 50% L-WRN conditioned media (ATCC, cat. CRL-3276), 1.25 mM N-Acetyl-L-cysteine (Sigma-Aldrich, cat. A9165), 10 mM nicotinamide (Sigma-Aldrich, cat. N0636), 1X B-27 supplement (Thermo Fisher Scientific, cat. 17504044), 1X N-2 supplement (Thermo Fisher Scientific, cat. […]
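Further: spheroids exposed to compounds for seven days.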
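Wherever viability, T/C is given: 100% = DMSO vehicle control viability.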

For `CC(C)n1c(=O)n(C)c2cnc3cc(F)c(-c4ccc(OCCCN5CCCCC5)nc4)cc3c21` + Cc1cccc(N(C)C(=O)C2C(O)CCN2c2nc(C)cc(C(F)(F)F)c2C#N)c1, the IC50 (second compound 0.0316 µM) was greater than 10 µM, the IC50 (second compound 0.1 µM) was greater than 10 µM and the IC50 (second compound 0.316 µM) was greater than 10 µM. It also gave an IC50 (second compound 1 µM) greater than 10 µM, an IC50 (second compound 3.16 µM) greater than 10 µM and an IC50 (second compound 10 µM) greater than 10 µM. It also gave a viability, T/C (second compound 0.0316 µM, first compound 0.0316 µM) of 101%, a viability, T/C (second compound 0.0316 µM, first compound 0.1 µM) of 97.7% and a viability, T/C (second compound 0.0316 µM, first compound 0.316 µM) of 94.8%. For the same molecule, the viability, T/C (second compound 0.0316 µM, first compound 1 µM) was 90.8%, the viability, T/C (second compound 0.0316 µM, first compound 3.16 µM) was 119% and the viability, T/C (second compound 0.0316 µM, first compound 10 µM) was 100%. It also gave a viability, T/C (second compound 0.1 µM, first compound 0.0316 µM) of 88.8%, a viability, T/C (second compound 0.1 µM, first compound 0.1 µM) of 93.2% and a viability, T/C (second compound 0.1 µM, first compound 0.316 µM) of 103%. The viability, T/C (second compound 0.1 µM, first compound 1 µM) was 92.3%, the viability, T/C (second compound 0.1 µM, first compound 3.16 µM) was 98% and the viability, T/C (second compound 0.1 µM, first compound 10 µM) was 88.2%. The viability, T/C (second compound 0.316 µM, first compound 0.0316 µM) was 90.6%, the viability, T/C (second compound 0.316 µM, first compound 0.1 µM) was 95.6% and the viability, T/C (second compound 0.316 µM, first compound 0.316 µM) was 94%. For the same molecule, the viability, T/C (second compound 0.316 µM, first compound 1 µM) was 87.6%, the viability, T/C (second compound 0.316 µM, first compound 3.16 µM) was 119% and the viability, T/C (second compound 0.316 µM, first compound 10 µM) was 93.9%. The viability, T/C (second compound 1 µM, first compound 0.0316 µM) was 104%, the viability, T/C (second compound 1 µM, first compound 0.1 µM) was 107% and the viability, T/C (second compound 1 µM, first compound 0.316 µM) was 99.6%. The viability, T/C (second compound 1 µM, first compound 1 µM) was 102%, the viability, T/C (second compound 1 µM, first compound 3.16 µM) was 102% and the viability, T/C (second compound 1 µM, first compound 10 µM) was 84.5%. For the same molecule, the viability, T/C (second compound 3.16 µM, first compound 0.0316 µM) was 84.3%, the viability, T/C (second compound 3.16 µM, first compound 0.1 µM) was 86.8% and the viability, T/C (second compound 3.16 µM, first compound 0.316 µM) was 99.4%. For the same molecule, the viability, T/C (second compound 3.16 µM, first compound 1 µM) was 96%, the viability, T/C (second compound 3.16 µM, first compound 3.16 µM) was 107% and the viability, T/C (second compound 3.16 µM, first compound 10 µM) was 97.2%. For the same molecule, the viability, T/C (second compound 10 µM, first compound 0.0316 µM) was 112%, the viability, T/C (second compound 10 µM, first compound 0.1 µM) was 94.6% and the viability, T/C (second compound 10 µM, first compound 0.316 µM) was 103%. For the same molecule, the viability, T/C (second compound 10 µM, first compound 1 µM) was 114%, the viability, T/C (second compound 10 µM, first compound 3.16 µM) was 94.9% and the viability, T/C (second compound 10 µM, first compound 10 µM) was 82.7%.
